In general, IC50 refers to the concentration that gives 50% inhibition. A higher IC50 goes with lower potency.

The text below walks through data of patent publication US20240140957A1, “BRIDGED COMPOUNDS AS KRAS G12D INHIBITOR AND DEGRADER AND THE USE THEREOF” (BeiGene Switzerland GmbH, priority 2021, published 2024).

In experiment [1] the target is KRAS G12D:SOS1 (Homo sapiens, UniProt P01116, G12D). The experiment in a line: KRAS G12D:SOS1 GDP TR-FRET assay. The format is binding. To be noted: GST-KRAS G12D 37.5 nM, GDP 10 μM, His-SOS1 18 nM. The method, then: (§1) KRAS:SOS1 GDP TR-FRET Assay
KRAS G12D:SOS1, sequence (P01116 1-188 isoform P01116-2 G12D): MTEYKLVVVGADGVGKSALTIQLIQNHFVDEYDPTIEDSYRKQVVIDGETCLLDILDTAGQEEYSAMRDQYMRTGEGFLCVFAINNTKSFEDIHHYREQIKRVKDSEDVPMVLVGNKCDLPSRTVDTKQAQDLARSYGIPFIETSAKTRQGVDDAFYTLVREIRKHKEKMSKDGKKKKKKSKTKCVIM
(§2) This assay was used to identify compounds which competitively interact with the binding of KRAS protein to SOS1 in the presence of GDP. […] All protein and reaction solutions were prepared in assay buffer containing DPBS pH7.5, 0.1% BSA, and 0.05% Tween 20. Purified GST-tagged WT KRAS or KRAS G12D protein (37.5 nM final assay concentration) and GDP (Sigma, 10 μM final assay concentration) mixture, a serially diluted compound (top final concentration is 50 μM or 10 uM, 3-fold serially diluted, 10 points) and His-tagged SOS1 protein (18 nM final assay concentration) were added into the assay plates (384 well microplate, black, Corning) sequentially. Plates are incubated at 24° C. for 1 hr. Following the incubation, Mab Anti-GST-Tb cryptate (Cisbio) and […] (Cisbio) were added and further incubated at 24° C. for another 1 hr. The TR-FRET signals (ex337 nm, em665 nm/620 nm) were read on BMG PHERAstar FSX instrument. The inhibition percentage of KRAS protein binding with SOS1 in presence of increasing concentrations of compounds was calculated based on the ratio of fluorescence at 665 nm to that at 620 nm. The IC50 value of each compound was calculated from fitting the data to the four-parameter logistic model by Dotmatics.
A general note: TR-FRET usually uses a lanthanide donor and a delayed reading to cut background.

The target in experiment [2] is WT KRAS:SOS1 (Homo sapiens, UniProt P01116). The experiment can be described thus: KRAS WT:SOS1 GDP TR-FRET assay. The format is binding. To be noted: GST-WT KRAS 37.5 nM, GDP 10 μM, His-SOS1 18 nM. The method, then: as §1, §2
WT KRAS:SOS1, sequence (P01116 1-188 isoform P01116-2): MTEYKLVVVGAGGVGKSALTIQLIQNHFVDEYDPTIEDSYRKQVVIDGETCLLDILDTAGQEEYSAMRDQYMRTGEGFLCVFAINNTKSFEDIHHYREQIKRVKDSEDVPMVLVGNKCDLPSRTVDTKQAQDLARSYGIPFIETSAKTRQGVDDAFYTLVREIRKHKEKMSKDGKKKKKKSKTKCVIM
In experiment [3] the test system is pERK1/2 (THR202/TYR204) in AsPC-1 cells. The experiment in a line: pERK Assay (HTRF) in AsPC-1 cells. The format is cell-based. To be noted: Homo sapiens, ASPC1, 2 h compound treatment. The method, then:
AsPC-1 cell line was used in this study. […] 30000 cells per well were seeded into a 96-well plate and incubated overnight. […] After 2 h compound treatment, cells were lysed, and the pERK1/2 (THR202/TYR204) level in the cell lysates was detected by HTRF kit (Cisbio). In brief, a total of 16 μL of cell lysate from each well of a 96-well plate was transferred to a 384-well white assay plate. Lysate from each well was incubated with 2 μL of Eu3+-cryptate (donor) labeled anti-phospho-ERK1/2 and 2 μL of D2 (acceptor) labeled anti-phospho-ERK1/2 antibodies (Cisbio) overnight in dark at room temperature. When donor and acceptor are in close proximity, excitation of the donor with laser triggers a Fluorescence Resonance Energy Transfer (FRET) towards the acceptor, which in turn fluoresces at 655 nm wavelength. FRET signals were measured using a PHERAstar FSX reader (BMG Labtech).

Consider `C[C@@H](CN1CCC1)Oc1nc(N2CC3CCC(C2)N3)c2cc(Cl)c(-c3ccc(F)c4sc(N)nc34)c(F)c2n1` [Example E23, 4-(2-(((S)-1-(azetidin-1-yl)propan-2-yl)oxy)-4-(3,8-diazabicyclo[3.2.1]octan-3-yl)-6-chloro-8-fluoroquinazolin-7-yl)-7-fluorobenzo[d]thiazol-2-amine], for which the values for the IC50 in experiment [1], in experiment [2] and in experiment [3] were 3.9 nM, 146 nM and 5.22 µM, respectively.
In the same order, the values of `Nc1nc2c(-c3c(Cl)cc4c(N5CC6CCC(C5)N6)nc(OCC56CCCN5CCC6)nc4c3F)ccc(F)c2s1` [Example E7, 4-(4-(3,8-diazabicyclo[3.2.1]octan-3-yl)-6-chloro-8-fluoro-2-((tetrahydro-1H-pyrrolizin-7a(5H)-yl)methoxy)quinazolin-7-yl)-7-fluorobenzo[d]thiazol-2-amine] are 4.7 nM, 11 nM and 2.64 µM.
For the compound `C[C@@H](CN1CCS(=O)(=O)CC1)Oc1nc(N2CC3CCC(C2)N3)c2cc(Cl)c(-c3ccc(F)c4sc(N)nc34)c(F)c2n1` [Example E22, 4-((2S)-2-((7-(2-amino-7-fluorobenzo[d]thiazol-4-yl)-4-(3,8-diazabicyclo[3.2.1]octan-3-yl)-6-chloro-8-fluoroquinazolin-2-yl)oxy)propyl)thiomorpholine 1,1-dioxide], the IC50 in experiment [1] is 27 nM; in experiment [2] it was more than 3330 nM; in experiment [3] it was 7.7 µM.
The matching figures for `CO[C@@H]1C[C@@H](COc2nc(N3CC4CCC(C3)N4)c3cc(Cl)c(-c4ccc(F)c5sc(N)nc45)c(F)c3n2)N(C)C1` [Example E14, 4-(4-(3,8-diazabicyclo[3.2.1]octan-3-yl)-6-chloro-8-fluoro-2-(((2S,4R)-4-methoxy-1-methylpyrrolidin-2-yl)methoxy)quinazolin-7-yl)-7-fluorobenzo[d]thiazol-2-amine]: 5.3 nM, 68 nM and 1.16 µM.
In the same order, the values of `CN1C[C@H](O)C[C@H]1COc1nc(N2CC3CCC(C2)N3)c2cc(Cl)c(-c3ccc(F)c4sc(N)nc34)c(F)c2n1` [Example E28, (3R,5S)-5-(((7-(2-amino-7-fluorobenzo[d]thiazol-4-yl)-4-(3,8-diazabicyclo[3.2.1]octan-3-yl)-6-chloro-8-fluoroquinazolin-2-yl)oxy)methyl)-1-methylpyrrolidin-3-ol] are 3 nM, 30 nM and 8.86 µM.
In the same order, the values of `CC(CN1CCNCC1)Oc1nc(N2CC3CCC(C2)N3)c2cc(Cl)c(-c3ccc(F)c4sc(N)nc34)c(F)c2n1` (stereo not drawn) [Example E13, 4-(4-(3,8-diazabicyclo[3.2.1]octan-3-yl)-6-chloro-8-fluoro-2-((1-(piperazin-1-yl)propan-2-yl)oxy)quinazolin-7-yl)-7-fluorobenzo[d]thiazol-2-amine] are 8.3 nM, 537 nM and more than 10 µM.
For the compound `C[C@@H](CN1CCC(F)CC1)Oc1nc(N2CC3CCC(C2)N3)c2cc(Cl)c(-c3ccc(F)c4sc(N)nc34)c(F)c2n1` [Example E25], the figures for the IC50 in experiment [1], in experiment [2] and in experiment [3] were 2.2 nM, 88 nM and 0.86 µM, respectively.
The matching figures for `CN(C)CCCOc1nc(N2CCNCC2)c2cc(Cl)c(-c3cc(O)cc4ccccc34)c(F)c2n1` [Example E1, 4-(6-chloro-2-(3-(dimethylamino)propoxy)-8-fluoro-4-(piperazin-1-)quinazolin-7-yl)naphthalen-2-ol]: 1870 nM, 26900 nM and more than 10 µM.
For the compound `C[C@@H](CN1CCC(F)CC1)Oc1nc(N2C3CCC2CNC3)c2cc(Cl)c(-c3ccc(F)c4sc(N)nc34)c(F)c2n1` [Example E30, 4-(4-(3,8-diazabicyclo[3.2.1]octan-8-yl)-6-chloro-8-fluoro-2-(((S)-1-(4-fluoropiperidin-1-yl)propan-2-yl)oxy)quinazolin-7-yl)-7-fluorobenzo[d]thiazol-2-amine], the results for the IC50 in experiment [1], in experiment [2] and in experiment [3] were 12 nM, 173 nM and 1.81 µM, respectively.
